From the supplement of paper PMC10883282

Legend:
Experiment in all cases: relative viability vs DMSO control (72 h) (fraction); higher = more viable cells
G401 = test system: G401
Procedure, shortened: (§1)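 Relative viability was measured with ATPLite and expressed as percent growth, averaged across up to triplicate wells. Sarcoma cell lines had been seeded in 384-well plates to reach 80–90% confluence, dosed after 24 h, and incubated 72 h at 37 °C, 5% CO2. All data were rescaled on a scale where 1 is full and 0 is none.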

A204 = test system: A204
Procedure, shortened: as §1

SW1353 = test system: SW1353
Procedure, shortened: as §1

SK-ES-1 = test system: SK-ES-1
Procedure, shortened: as §1

HT1080 = test system: HT1080
Procedure, shortened: as §1

SW684 = test system: SW684
Procedure, shortened: as §1

SW982 = test system: SW982
Procedure, shortened: as §1

SW872 = test system: SW872
Procedure, shortened: as §1

RD-ES = test system: RD-ES
Procedure, shortened: as §1

KHOS-240S = test system: KHOS-240S
Procedure, shortened: as §1

KHOS-NP = test system: KHOS-NP
Procedure, shortened: as §1

SYO-1 = test system: SYO-1
Procedure, shortened: as §1

CCc1cnn2c(NCc3ccc[n+]([O-])c3)cc(N3CCCC[C@H]3CCO)nc12 [Dinaciclib]
Details	relative viability
A204, 0.00017 µM	0.998
A204, 0.00051 µM	1.02
A204, 0.00152 µM	0.9831
A204, 0.00457 µM	0.913
A204, 0.01372 µM	0.482
A204, 0.04115 µM	0.247
A204, 0.1235 µM	0.235
A204, 0.3704 µM	0.199
A204, 1.111 µM	0.187
A204, 3.333 µM	0.179
A204, 10 µM	0.18
G401, 0.00017 µM	0.997
G401, 0.00051 µM	0.974
G401, 0.00152 µM	0.989
G401, 0.00457 µM	0.915
G401, 0.01372 µM	0.46
G401, 0.04115 µM	0.089
G401, 0.1235 µM	0.0853
G401, 0.3704 µM	0.0974
G401, 1.111 µM	0.0916
G401, 3.333 µM	0.0843
G401, 10 µM	0.072
HT1080, 0.00017 µM	1.04
HT1080, 0.00051 µM	1.04
HT1080, 0.00152 µM	1.04
HT1080, 0.00457 µM	1.09
HT1080, 0.01372 µM	0.792
HT1080, 0.04115 µM	0.193
HT1080, 0.1235 µM	0.208
HT1080, 0.3704 µM	0.209
HT1080, 1.111 µM	0.202
HT1080, 3.333 µM	0.216
HT1080, 10 µM	0.219
KHOS-240S, 0.00017 µM	0.954
KHOS-240S, 0.00051 µM	0.976
KHOS-240S, 0.00152 µM	0.966
KHOS-240S, 0.00457 µM	0.913
KHOS-240S, 0.01372 µM	0.45
KHOS-240S, 0.04115 µM	0.214
KHOS-240S, 0.1235 µM	0.207
KHOS-240S, 0.3704 µM	0.21
KHOS-240S, 1.111 µM	0.218
KHOS-240S, 3.333 µM	0.213
KHOS-240S, 10 µM	0.181
KHOS-NP, 0.00017 µM	1.03
KHOS-NP, 0.00051 µM	1.05
KHOS-NP, 0.00152 µM	1.06
KHOS-NP, 0.00457 µM	1.07
KHOS-NP, 0.01372 µM	0.836
KHOS-NP, 0.04115 µM	0.183
KHOS-NP, 0.1235 µM	0.153
KHOS-NP, 0.3704 µM	0.163
KHOS-NP, 1.111 µM	0.164
KHOS-NP, 3.333 µM	0.162
KHOS-NP, 10 µM	0.137
RD-ES, 0.00017 µM	0.937
RD-ES, 0.00051 µM	0.916
RD-ES, 0.00152 µM	0.912
RD-ES, 0.00457 µM	0.886
RD-ES, 0.01372 µM	0.612
RD-ES, 0.04115 µM	0.0429
RD-ES, 0.1235 µM	0.0102
RD-ES, 0.3704 µM	0.00417
RD-ES, 1.111 µM	0.0013
RD-ES, 3.333 µM	-0.0014
RD-ES, 10 µM	-0.00263
SK-ES-1, 0.00017 µM	0.939
SK-ES-1, 0.00051 µM	1
SK-ES-1, 0.00152 µM	0.939
SK-ES-1, 0.00457 µM	0.79
SK-ES-1, 0.01372 µM	0.411
SK-ES-1, 0.04115 µM	0.0163
SK-ES-1, 0.1235 µM	0.0154
SK-ES-1, 0.3704 µM	0.00863
SK-ES-1, 1.111 µM	0.00557
SK-ES-1, 3.333 µM	0.000967
SK-ES-1, 10 µM	-0.000867
SW684, 0.00017 µM	0.96
SW684, 0.00051 µM	1.01
SW684, 0.00152 µM	1.02
SW684, 0.00457 µM	0.964
SW684, 0.01372 µM	0.669
SW684, 0.04115 µM	0.713
SW684, 0.1235 µM	0.71
SW684, 0.3704 µM	0.713
SW684, 1.111 µM	0.689
SW684, 3.333 µM	0.7
SW684, 10 µM	0.71
SW872, 0.00017 µM	1.01
SW872, 0.00051 µM	1.01
SW872, 0.00152 µM	1.01
SW872, 0.00457 µM	1.03
SW872, 0.01372 µM	0.947
SW872, 0.04115 µM	0.412
SW872, 0.1235 µM	0.279
SW872, 0.3704 µM	0.268
SW872, 1.111 µM	0.259
SW872, 3.333 µM	0.256
SW872, 10 µM	0.245
SW982, 0.00017 µM	0.9568
SW982, 0.00051 µM	0.98
SW982, 0.00152 µM	0.984
SW982, 0.00457 µM	0.962
SW982, 0.01372 µM	0.566
SW982, 0.04115 µM	0.223
SW982, 0.1235 µM	0.239
SW982, 0.3704 µM	0.269
SW982, 1.111 µM	0.267
SW982, 3.333 µM	0.25
SW982, 10 µM	0.227
SW1353, 0.00017 µM	1.05
SW1353, 0.00051 µM	1.08
SW1353, 0.00152 µM	1.07
SW1353, 0.00457 µM	1.07
SW1353, 0.01372 µM	0.944
SW1353, 0.04115 µM	0.238
SW1353, 0.1235 µM	0.238
SW1353, 0.3704 µM	0.242
SW1353, 1.111 µM	0.235
SW1353, 3.333 µM	0.234
SW1353, 10 µM	0.219
SYO-1, 0.00017 µM	0.982
SYO-1, 0.00051 µM	0.998
SYO-1, 0.00152 µM	0.982
SYO-1, 0.00457 µM	0.908
SYO-1, 0.01372 µM	0.28
SYO-1, 0.04115 µM	0.248
SYO-1, 0.1235 µM	0.256
SYO-1, 0.3704 µM	0.294
SYO-1, 1.111 µM	0.288
SYO-1, 3.333 µM	0.295
SYO-1, 10 µM	0.305

Cc1cc2cc(Oc3ccnc(Nc4cccc(CS(=O)(=O)NCCN(C)C)c4)n3)ccc2[nH]1 [Sulfatinib]
Details	relative viability
A204, 0.00017 µM	1.09
A204, 0.00051 µM	1.08
A204, 0.00152 µM	1.08
A204, 0.00457 µM	1.05
A204, 0.01372 µM	1.07
A204, 0.04115 µM	1.02
A204, 0.1235 µM	1.01
A204, 0.3704 µM	0.878
A204, 1.111 µM	0.536
A204, 3.333 µM	0.283
A204, 10 µM	0.136
G401, 0.00017 µM	1.024
G401, 0.00051 µM	0.976
G401, 0.00152 µM	1.01
G401, 0.00457 µM	0.995
G401, 0.01372 µM	1.04
G401, 0.04115 µM	0.993
G401, 0.1235 µM	0.983
G401, 0.3704 µM	1.02
G401, 1.111 µM	0.969
G401, 3.333 µM	0.536
G401, 10 µM	0.157
HT1080, 0.00017 µM	1.023
HT1080, 0.00051 µM	0.983
HT1080, 0.00152 µM	0.997
HT1080, 0.00457 µM	1.03
HT1080, 0.01372 µM	1.03
HT1080, 0.04115 µM	1.03
HT1080, 0.1235 µM	1.01
HT1080, 0.3704 µM	1.044
HT1080, 1.111 µM	0.969
HT1080, 3.333 µM	1.05
HT1080, 10 µM	0.878
KHOS-240S, 0.00017 µM	1.02
KHOS-240S, 0.00051 µM	1.02
KHOS-240S, 0.00152 µM	1.02
KHOS-240S, 0.00457 µM	1.03
KHOS-240S, 0.01372 µM	1.05
KHOS-240S, 0.04115 µM	1.02
KHOS-240S, 0.1235 µM	1.012
KHOS-240S, 0.3704 µM	0.961
KHOS-240S, 1.111 µM	0.936
KHOS-240S, 3.333 µM	0.741
KHOS-240S, 10 µM	0.382
KHOS-NP, 0.00017 µM	1.05
KHOS-NP, 0.00051 µM	1.05
KHOS-NP, 0.00152 µM	1.03
KHOS-NP, 0.00457 µM	1.006
KHOS-NP, 0.01372 µM	1.03
KHOS-NP, 0.04115 µM	1.019
KHOS-NP, 0.1235 µM	1.04
KHOS-NP, 0.3704 µM	1.026
KHOS-NP, 1.111 µM	1.01
KHOS-NP, 3.333 µM	1.01
KHOS-NP, 10 µM	0.963
RD-ES, 0.00017 µM	1.02
RD-ES, 0.00051 µM	0.998
RD-ES, 0.00152 µM	1.01
RD-ES, 0.00457 µM	0.996
RD-ES, 0.01372 µM	1.023
RD-ES, 0.04115 µM	1
RD-ES, 0.1235 µM	1
RD-ES, 0.3704 µM	1.01
RD-ES, 1.111 µM	0.992
RD-ES, 3.333 µM	0.87
RD-ES, 10 µM	0.579
SK-ES-1, 0.00017 µM	1.03
SK-ES-1, 0.00051 µM	1.03
SK-ES-1, 0.00152 µM	1.01
SK-ES-1, 0.00457 µM	1.03
SK-ES-1, 0.01372 µM	1.03
SK-ES-1, 0.04115 µM	1.05
SK-ES-1, 0.1235 µM	1.03
SK-ES-1, 0.3704 µM	1.03
SK-ES-1, 1.111 µM	1
SK-ES-1, 3.333 µM	0.859
SK-ES-1, 10 µM	0.455
SW684, 0.00017 µM	1.11
SW684, 0.00051 µM	1.09
SW684, 0.00152 µM	1.09
SW684, 0.00457 µM	1.12
SW684, 0.01372 µM	1.08
SW684, 0.04115 µM	1.07
SW684, 0.1235 µM	1.04
SW684, 0.3704 µM	1.1
SW684, 1.111 µM	1.05
SW684, 3.333 µM	0.995
SW684, 10 µM	0.555
SW872, 0.00017 µM	1.02
SW872, 0.00051 µM	1.05
SW872, 0.00152 µM	1.02
SW872, 0.00457 µM	1.02
SW872, 0.01372 µM	1
SW872, 0.04115 µM	0.996
SW872, 0.1235 µM	1.02
SW872, 0.3704 µM	1.02
SW872, 1.111 µM	0.973
SW872, 3.333 µM	0.88
SW872, 10 µM	0.526
SW982, 0.00017 µM	1.04
SW982, 0.00051 µM	1.04
SW982, 0.00152 µM	1.05
SW982, 0.00457 µM	1.06
SW982, 0.01372 µM	1.04
SW982, 0.04115 µM	1.03
SW982, 0.1235 µM	1.06
SW982, 0.3704 µM	1.02
SW982, 1.111 µM	0.971
SW982, 3.333 µM	0.719
SW982, 10 µM	0.226
SW1353, 0.00017 µM	0.936
SW1353, 0.00051 µM	0.911
SW1353, 0.00152 µM	0.925
SW1353, 0.00457 µM	0.941
SW1353, 0.01372 µM	0.975
SW1353, 0.04115 µM	0.922
SW1353, 0.1235 µM	0.964
SW1353, 0.3704 µM	0.931
SW1353, 1.111 µM	0.906
SW1353, 3.333 µM	0.845
SW1353, 10 µM	0.565
SYO-1, 0.00017 µM	0.943
SYO-1, 0.00051 µM	0.962
SYO-1, 0.00152 µM	0.945
SYO-1, 0.00457 µM	0.938
SYO-1, 0.01372 µM	0.9
SYO-1, 0.04115 µM	0.865
SYO-1, 0.1235 µM	0.805
SYO-1, 0.3704 µM	0.607
SYO-1, 1.111 µM	0.423
SYO-1, 3.333 µM	0.341
SYO-1, 10 µM	0.105
